Reference: the supplement of paper PMC10307832

Legend:
BAM7 + Trametinib = compound: CCOC1=CC=CC=C1N=NC2=C(NN(C2=O)C3=NC(=CS3)C4=CC=CC=C4)C [BAM7] + CC(=O)Nc1cccc(-n2c(=O)n(C3CC3)c(=O)c3c(Nc4ccc(I)cc4F)n(C)c(=O)c(C)c32)c1 [Trametinib] (partner 0.02 µM); experiment: relative viability (nuclei count vs DMSO), 5 days (fraction); higher = more cells survive
How it was run: (§1)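 Medians of duplicate plates are given as relative viability. That measure is the nuclei count in treated wells divided by the count in vehicle wells. Counts were taken on 4× images of lung cancer cell lines in 1536-well plates, 5 days after pin-tool dosing the day after seeding with one drug alone or a fixed anchor-drug dose plus five library-drug doses (not always all listed) in √10 steps.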

[1] = compound: CCn1c(-c2nonc2N)nc2c(C#CC(C)(C)O)ncc(OC[C@H]3CCCNC3)c21 + Cc1nc(Nc2ncc(C(=O)Nc3c(C)cccc3Cl)s2)cc(N2CCN(CCO)CC2)n1 [Dasatinib] (partner 0.075 µM); experiment: as above
How it was run: as §1

Cell Line | relative viability (BAM7 + Trametinib; first compound 0.5 µM) | relative viability (BAM7 + Trametinib; first compound 5 µM) | relative viability (BAM7 + Trametinib; first compound 15.81 µM) | relative viability (BAM7 + Trametinib; first compound 50 µM) | relative viability ([1]; first compound 0.01 µM) | relative viability ([1]; first compound 0.03162 µM) | relative viability ([1]; first compound 0.1 µM) | relative viability ([1]; first compound 0.3162 µM) | relative viability ([1]; first compound 1 µM)
EMC-BAC-2 | 0.941 | 0.944 | 0.941 | 1.02 | 0.302 | 0.29 | 0.333 | 0.297 | 0.34
NCI-H2405 | 0.596 | 0.706 | 0.477 | 0.715 | 0.199 | 0.216 | 0.216 | 0.214 | 0.213
NCI-H358 | – | 0.152 | 0.137 | 0.126 | 0.196 | 0.19 | 0.169 | 0.135 | 0.183
NCI-H1944 | 0.444 | 0.433 | 0.434 | 0.439 | 0.215 | 0.224 | 0.213 | 0.212 | 0.212
NCI-H2342 | 0.933 | 0.818 | 0.745 | 0.82 | 0.286 | 0.304 | 0.32 | 0.317 | 0.33
EPLC-272H | 0.292 | 0.31 | 0.252 | 0.28 | 0.357 | 0.413 | 0.382 | 0.334 | 0.397
NCI-H1915 | 0.333 | 0.317 | 0.272 | 0.323 | 0.295 | 0.309 | 0.324 | 0.302 | 0.368
NCI-H596 | 0.869 | 0.838 | 0.754 | 0.736 | 0.641 | 0.67 | 0.563 | 0.48 | 0.554
NCI-H322M | 0.525 | 0.577 | 0.496 | 0.571 | 0.246 | 0.233 | 0.245 | 0.264 | 0.271
NCI-H2228 | 0.601 | 0.523 | 0.41 | 0.547 | 0.451 | 0.526 | 0.583 | 0.482 | 0.353
NCI-H522 | 0.72 | 0.741 | 0.665 | 0.718 | 0.796 | 0.949 | 0.845 | 0.718 | 0.998
NCI-H647 | 0.457 | 0.599 | 0.494 | 0.445 | 0.193 | 0.224 | 0.184 | 0.152 | 0.164
SK-MES-1 | 0.566 | 0.551 | 0.523 | 0.495 | 0.359 | 0.386 | 0.446 | 0.447 | 0.373
NCI-H2170 | 0.917 | 0.799 | 0.814 | 0.816 | 0.566 | 0.532 | 0.57 | 0.535 | 0.516
NCI-H2085 | 0.587 | 0.521 | 0.471 | 0.52 | 0.21 | 0.272 | 0.278 | 0.255 | 0.228
SW 1573 | 0.633 | 0.592 | 0.541 | 0.528 | 0.377 | 0.561 | 0.431 | 0.455 | 0.354
NCI-H727 | 0.413 | 0.414 | 0.393 | 0.386 | 0.399 | 0.422 | 0.353 | 0.373 | 0.459
NCI-H441 | 0.522 | 0.518 | 0.498 | 0.496 | 0.585 | 0.593 | 0.499 | 0.637 | 0.505

Cell Line | relative viability (BAM7 + Trametinib; first compound 0.5 µM) | relative viability (BAM7 + Trametinib; first compound 5 µM) | relative viability (BAM7 + Trametinib; first compound 15.81 µM) | relative viability (BAM7 + Trametinib; first compound 50 µM) | relative viability ([1]; first compound 0.01 µM) | relative viability ([1]; first compound 0.03162 µM) | relative viability ([1]; first compound 0.1 µM) | relative viability ([1]; first compound 0.3162 µM) | relative viability ([1]; first compound 1 µM)
LOU-NH91 | 0.794 | 0.788 | 0.804 | 0.805 | 0.564 | 0.575 | 0.543 | 0.537 | 0.337
NCI-H3122 | 0.24 | 0.232 | 0.283 | 0.198 | 0.68 | 0.859 | 0.857 | 0.852 | 0.637
NCI-H460 | 0.0937 | 0.124 | 0.145 | 0.13 | 0.526 | 0.461 | 0.533 | 0.45 | 0.516
NCI-H650 | 1.02 | 0.98 | 1.04 | 1.28 | 0.44 | 0.392 | 0.453 | 0.457 | 0.448
NCI-H661 | 0.561 | 0.638 | 0.606 | 0.619 | 0.996 | 0.86 | 0.9 | 0.751 | 0.764
NCI-H1793 | 0.407 | 0.473 | 0.385 | 0.483 | 0.361 | 0.406 | 0.399 | 0.359 | 0.421
NCI-H1734 | 0.766 | 0.798 | 0.667 | 0.626 | 0.473 | 0.475 | 0.414 | 0.407 | 0.38
LXF-289 | 0.739 | 0.762 | 0.734 | 0.641 | 0.249 | 0.223 | 0.205 | 0.234 | 0.187
H3255 | 0.539 | 0.607 | 0.507 | 0.555 | 0.323 | 0.412 | 0.378 | 0.284 | 0.305
201T | 0.742 | 0.738 | 0.71 | 0.708 | 0.576 | 0.644 | 0.516 | 0.51 | 0.597
NCI-H2126 | 0.516 | 0.499 | 0.519 | 0.476 | 0.587 | 0.468 | 0.597 | 0.579 | 0.677
HOP-62 | 0.37 | 0.416 | 0.376 | 0.352 | 0.64 | 0.587 | 0.66 | 0.659 | 0.607
CAL-12T | 0.381 | 0.333 | 0.303 | 0.384 | 0.404 | 0.459 | 0.343 | 0.323 | 0.326
NCI-H520 | 0.595 | 0.782 | 0.804 | 0.789 | 0.223 | 0.2 | 0.181 | 0.159 | 0.134
NCI-H1755 | 0.749 | 0.805 | 0.705 | 0.779 | 0.432 | 0.419 | 0.423 | 0.42 | 0.42
NCI-H2023 | 0.525 | 0.437 | 0.398 | 0.49 | 0.454 | 0.572 | 0.492 | 0.388 | 0.344
NCI-H2009 | 0.265 | 0.229 | 0.268 | 0.283 | 0.257 | 0.33 | 0.287 | 0.254 | 0.283
